Like-named read-outs stand apart in the source and are kept apart here. Peptide text beside a SMILES is read from it. * marks the point of attachment. Dansyl = CN(C)c1cccc2c(S(=O)(=O)*)cccc12
Columns and labels:
Format in all cases: binding
[1] = target: T1, Nter-NPM1 (residues 16-123) (Homo sapiens, UniProt P06748); experiment: Equilibrium fluorescence titration of dansylated peptide with Nter-NPM1; details: for Nter-NPM1 KD: wild-type Nter-NPM1, N-terminally dansylated peptide 5 μM, protein 0 to 200/400 μM, sodium phosphate 20 mM pH 7.2, 25 °C, fluorescence ex 330 nm, triplicate, ±s.d., Ni = no interaction
T1 construct: inferred from pET28a NdeI/BamHI cloning and HisTrap purification) (N); made in house; host or cells: Escherichia coli BL21(DE3)
T1 sequence (P06748 16-123): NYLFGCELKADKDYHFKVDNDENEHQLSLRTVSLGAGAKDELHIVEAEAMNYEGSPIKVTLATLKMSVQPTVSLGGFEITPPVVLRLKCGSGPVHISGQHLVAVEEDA
Protocol: (§1) All experiments were performed at 25 °C in sodium phosphate buffer 20 mM pH 7.2, or in sodium phosphate buffer 20 mM plus 100 mM NaCl pH 7.2 (which sets ionic strength to 150 mM), using a FluoroMax-4 spectrofluorometer (Jobin Yvon, Edison, NJ, USA), equipped with a water bath apparatus. Fbw7γ and CENP-W peptides, functionalized with a dansyl (5-dimetilamminonaftalen-1-sulphonyl) group at their N terminus, were purchased from JPT (Germany). Tat peptide was synthesized employing the solid phase method following standard Fmoc strategies and labeled with dansyl fluorophore at its N terminus. Crude product was purified by RP-HPLC applying a linear gradient of 0.1% TFA CH3CN in 0.1% TFA water from 5% to 65% over 12 min using a semi-preparative 2.2 × 5 cm C18 column at a flow rate of 20 ml/min. Purity and identity were confirmed by LC–MS analysis.
(§2) Titration experiments were conducted with an excitation wavelength of 330 nm while the fluorescence emission spectra were collected in the range between 350 and 650 nm. Titrations were performed at constant peptide concentration (5 μM) and varying protein concentrations (from 0 to 200/400 μM). Titrations were performed in triplicate and data, analyzed with the Graphpad Prism software (https://www.graphpad.com/scientific-software/prism/), were reported as dissociation constant±s.d.
(§3) Equilibrium binding curves were fitted to the standard quadratic equation: […]
(§4) where F is the observed fluorescence signal, n and [A]0 are the total concentration of non-varied and varied species, respectively, and KD is the equilibrium dissociation constant. B and C are constants taking into account the total fluorescence change and fluorescence at [A]0=0, respectively, and k is a term describing the slope of the curve at high protein concentration. Whenever possible, under pseudo first-order conditions, the equation 1 was simplified to: […]

[2] = target: T2, Nter-NPM1 D36A-E39A-E93A-E121A (Homo sapiens, UniProt P06748, D36A/E121A/E39A/E93A); experiment: Equilibrium fluorescence titration, Nter-NPM1 quadruple mutant (E121A); details: dansylated peptide 5 μM; sodium phosphate 20 mM pH 7.2, 25 °C; triplicate, ±s.d.
T2 construct: inferred from pET28a NdeI/BamHI cloning and HisTrap purification) (N); made in house; host or cells: Escherichia coli BL21(DE3)
T2 sequence (P06748 16-123 D36A/E39A/E93A/E121A): as the sequence (P06748 16-123) above, with D21A, E24A, E78A, E106A counted along it
Protocol: (§5) Nter-NPM1 mutants were obtained by site-directed mutagenesis using the Quickchange II Lightning Site-Directed Mutagenesis kit (Stratagene, La Jolla, CA, USA), following manufacturer’s instructions. Oligonucleotides used for PCR were obtained from Primm Biotech (Milan, Italy). Forward oligonucleotides used are reported in Supplementary Table 2.
as §1
Titration experiments were conducted with an excitation wavelength of 330 nm while the fluorescence emission spectra were collected in the range between 350 and 650 nm. Titrations were performed at constant peptide concentration (5 μM) and varying protein concentrations (from 0 to 200/400 μM). Titrations were performed in triplicate and data, analyzed with the Graphpad Prism software (https://www.graphpad.com/scientific-software/prism/), were reported as dissociation constant±s.d. […]
(§6) where F is the observed fluorescence signal, n and [A]0 are the total concentration of non-varied and varied species, respectively, and KD is the equilibrium dissociation constant. B and C are constants taking into account the total fluorescence change and fluorescence at [A]0=0, respectively, and k is a term describing the slope of the curve at high protein concentration. […]

[3] = target: T3, Nter-NPM1 D36A-E37A-E39A-E93A (Homo sapiens, UniProt P06748, D36A/E37A/E39A/E93A); experiment: Equilibrium fluorescence titration, Nter-NPM1 quadruple mutant (E37A); details: dansylated peptide 5 μM
T3 construct: inferred from pET28a NdeI/BamHI cloning and HisTrap purification) (N); made in house; host or cells: Escherichia coli BL21(DE3)
T3 sequence (P06748 16-123 D36A/E37A/E39A/E93A): as the sequence (P06748 16-123) above, with D21A, E22A, E24A, E78A counted along it
Protocol: as §5, §1, §2, §3, §4

[4] = target: T4, Nter-NPM1 D36A-E37A-E39A-E93A-E121A (Homo sapiens, UniProt P06748, D36A/E121A/E37A/E39A/E93A); experiment: Equilibrium fluorescence titration, Nter-NPM1 quintuple mutant; details: dansylated peptide 5 μM; for Kd: sodium phosphate 20 mM pH 7.2, 25 °C, triplicate, ±s.d.
T4 construct: inferred from pET28a NdeI/BamHI cloning and HisTrap purification) (N); made in house; host or cells: Escherichia coli BL21(DE3)
T4 sequence (P06748 16-123 D36A/E37A/E39A/E93A/E121A): as the sequence (P06748 16-123) above, with D21A, E22A, E24A, E78A, E106A counted along it
Protocol: as §5, §1, §2, §3, §4

[5] = target: T5, Nter-NPM1 D36A-E39A-E93A (Homo sapiens, UniProt P06748, D36A/E39A/E93A); experiment: Equilibrium fluorescence titration, Nter-NPM1 triple mutant; details: dansylated peptide 5 μM
T5 construct: inferred from pET28a NdeI/BamHI cloning and HisTrap purification) (N); made in house; host or cells: Escherichia coli BL21(DE3)
T5 sequence (P06748 16-123 D36A/E39A/E93A): as the sequence (P06748 16-123) above, with D21A, E24A, E78A counted along it
Protocol: as §5, §1, §2, §3, §4

[6] = target: T6, Nter-NPM1 E121A (Homo sapiens, UniProt P06748, E121A); experiment: Equilibrium fluorescence titration, Nter-NPM1 E121A mutant; details: dansylated peptide 5 μM; sodium phosphate 20 mM pH 7.2, 25 °C; triplicate, ±s.d.
T6 construct: inferred from pET28a NdeI/BamHI cloning and HisTrap purification) (N); made in house; host or cells: Escherichia coli BL21(DE3)
T6 sequence (P06748 16-123 E121A): as the sequence (P06748 16-123) above, with E106A counted along it
Protocol: as §5
(§7) All experiments were performed at 25 °C in sodium phosphate buffer 20 mM pH 7.2, or in sodium phosphate buffer 20 mM plus 100 mM NaCl pH 7.2 (which sets ionic strength to 150 mM), using a FluoroMax-4 spectrofluorometer (Jobin Yvon, Edison, NJ, USA), equipped with a water bath apparatus. […]
(§8) Titration experiments were conducted with an excitation wavelength of 330 nm while the fluorescence emission spectra were collected in the range between 350 and 650 nm. […] Titrations were performed in triplicate and data, analyzed with the Graphpad Prism software (https://www.graphpad.com/scientific-software/prism/), were reported as dissociation constant±s.d. […]
as §6

[7] = target: T7, Nter-NPM1 D36A-E93A (Homo sapiens, UniProt P06748, D36A/E93A); experiment: Equilibrium fluorescence titration, Nter-NPM1 D36A-E93A mutant; details: dansylated peptide 5 μM; sodium phosphate 20 mM pH 7.2, 25 °C; triplicate, ±s.d.
T7 construct: inferred from pET28a NdeI/BamHI cloning and HisTrap purification) (N); made in house; host or cells: Escherichia coli BL21(DE3)
T7 sequence (P06748 16-123 D36A/E93A): as the sequence (P06748 16-123) above, with D21A, E78A counted along it
Protocol: as §5, §7, §8, §6

[8] = target: T8, Nter-NPM1 E93A (Homo sapiens, UniProt P06748, E93A); experiment: Equilibrium fluorescence titration, Nter-NPM1 E93A mutant; details: dansylated peptide 5 μM; sodium phosphate 20 mM pH 7.2, 25 °C; triplicate, ±s.d.
T8 construct: inferred from pET28a NdeI/BamHI cloning and HisTrap purification) (N); made in house; host or cells: Escherichia coli BL21(DE3)
T8 sequence (P06748 16-123 E93A): as the sequence (P06748 16-123) above, with E78A counted along it
Protocol: as §5, §7, §8, §6

[9] = target: T9, Nter-NPM1 E39A-E93A (Homo sapiens, UniProt P06748, E39A/E93A); experiment: Equilibrium fluorescence titration, Nter-NPM1 E39A-E93A mutant; details: dansylated peptide 5 μM; sodium phosphate 20 mM pH 7.2, 25 °C; triplicate, ±s.d.
T9 construct: inferred from pET28a NdeI/BamHI cloning and HisTrap purification) (N); made in house; host or cells: Escherichia coli BL21(DE3)
T9 sequence (P06748 16-123 E39A/E93A): as the sequence (P06748 16-123) above, with E24A, E78A counted along it
Protocol: as §5, §7, §8, §6

[10] = target: T10, Nter-NPM1 D36A-E39A (Homo sapiens, UniProt P06748, D36A/E39A); experiment: Equilibrium fluorescence titration, Nter-NPM1 D36A-E39A mutant; details: dansylated peptide 5 μM; sodium phosphate 20 mM pH 7.2, 25 °C; triplicate, ±s.d.
T10 construct: inferred from pET28a NdeI/BamHI cloning and HisTrap purification) (N); made in house; host or cells: Escherichia coli BL21(DE3)
T10 sequence (P06748 16-123 D36A/E39A): as the sequence (P06748 16-123) above, with D21A, E24A counted along it
Protocol: as §5, §7, §8, §6

[11] = target: T11, Nter-NPM1 E39A (Homo sapiens, UniProt P06748, E39A); experiment: Equilibrium fluorescence titration, Nter-NPM1 E39A mutant; details: dansylated peptide 5 μM; sodium phosphate 20 mM pH 7.2, 25 °C; triplicate, ±s.d.
T11 construct: inferred from pET28a NdeI/BamHI cloning and HisTrap purification) (N); made in house; host or cells: Escherichia coli BL21(DE3)
T11 sequence (P06748 16-123 E39A): as the sequence (P06748 16-123) above, with E24A counted along it
Protocol: as §5, §7, §8, §6

[12] = target: T12, Nter-NPM1 E37A (Homo sapiens, UniProt P06748, E37A); experiment: Equilibrium fluorescence titration, Nter-NPM1 E37A mutant; details: dansylated peptide 5 μM; sodium phosphate 20 mM pH 7.2, 25 °C; triplicate, ±s.d.
T12 construct: inferred from pET28a NdeI/BamHI cloning and HisTrap purification) (N); made in house; host or cells: Escherichia coli BL21(DE3)
T12 sequence (P06748 16-123 E37A): as the sequence (P06748 16-123) above, with E22A counted along it
Protocol: as §5, §7, §8, §6

[13] = target: T13, Nter-NPM1 D36A (Homo sapiens, UniProt P06748, D36A); experiment: Equilibrium fluorescence titration, Nter-NPM1 D36A mutant; details: dansylated peptide 5 μM; sodium phosphate 20 mM pH 7.2, 25 °C; triplicate, ±s.d.
T13 construct: inferred from pET28a NdeI/BamHI cloning and HisTrap purification) (N); made in house; host or cells: Escherichia coli BL21(DE3)
T13 sequence (P06748 16-123 D36A): as the sequence (P06748 16-123) above, with D21A counted along it
Protocol: as §5, §7, §8, §6

[14] = sodium phosphate 20 mM pH 7.2, 25 °C, triplicate, ±s.d., read-out: KD, D36A-E37A-E39A-E93A
[15] = sodium phosphate 20 mM pH 7.2, 25 °C, triplicate, ±s.d., read-out: KD, D36A-E39A-E93A

Nter-NPM1 KD [1] | Kd [2] | Kd [3, 14] | Kd [4] | Kd ([1]; SD, read-out: Nter-NPM1 KD) | Kd [5, 15] | Compound | also measured
Ni | – | – | – | – | – | DDEAQTLAKFVLSQK [Unrelated long, reference compound] | Nter-NPM1 KD ([1]; listed as unrelated long): No interaction
Ni | – | – | – | – | – | VLSQK [Unreleted short, reference compound] | Nter-NPM1 KD ([1]; listed as unrelated short): No interaction

Continued, compound first:

Compound | Nter-NPM1 KD [1] | Kd [2] | Kd [3, 14] | Kd [4] | Kd ([1]; SD, read-out: Nter-NPM1 KD) | Kd [5, 15] | also measured
C[C@H](NS(=O)(=O)c1cccc2c(N(C)C)cccc12)C(=O)NCC(=O)N[C@@H](CCCNC(=N)N)C(=O)N[C@@H](CCCCN)C(=O)N[C@@H](CCCCN)C(=O)N[C@@H](CCCNC(=N)N)C(=O)N[C@@H](CCCNC(=N)N)C(=O)N[C@@H](CCC(N)=O)C(=O)N[C@@H](CCCNC(=N)N)C(=O)N[C@@H](CCCNC(=N)N)C(=O)N[C@@H](CCCNC(=N)N)C(=O)N1CCC[C@H]1C(=O)N1CCC[C@H]1C(=O)N[C@@H](CCC(N)=O)C(=O)O [Tat*] | – | 63.8 ± 5 µM | 57.4 ± 7 µM | 643 ± 70.8 µM | 2.4 ± 0.5 µM | 11.1 ± 2.1 µM | –
CSCC[C@H](NC(=O)[C@H](CCCNC(=N)N)NC(=O)[C@H](CCCNC(=N)N)NC(=O)[C@H](CCCNC(=N)N)NC(=O)[C@H](CS)NC(=O)[C@H](Cc1ccccc1)NC(=O)[C@@H]1CCCN1C(=O)[C@H](CC(C)C)NS(=O)(=O)c1cccc2c(N(C)C)cccc12)C(=O)N[C@@H](CCCCN)C(=O)N[C@@H](CCCNC(=N)N)C(=O)N[C@@H](CCCCN)C(=O)N[C@@H](CC(C)C)C(=O)N[C@@H](CC(=O)O)C(=O)N[C@@H](Cc1c[nH]cn1)C(=O)O [Fbw7γ*] (Dansyl-LPFCRRRMKRKLDH-OH) | – | 224 ± 35.9 µM | 151 ± 20.5 µM | 654 ± 46.9 µM | 3.2 ± 0.6 µM | 22 ± 3 µM | Kd [6]: 13.3 ± 3.8 µM; Kd ([3]; sodium phosphate 20 mM plus 100 mM NaCl pH 7.2 (ionic strength 150 mM), 25 °C, read-out: KD 100mM NaCl, D36A-E37A-E39A-E93A): 158 ± 12.3 µM; Kd [7]: 8.4 ± 1.5 µM; Kd [8]: 5 ± 1.6 µM; KD 100mM NaCl, D36A-E37A-E39A-E93A-E121A ([4]; sodium phosphate 20 mM plus 100 mM NaCl pH 7.2 (ionic strength 150 mM), 25 °C): No Interaction; Kd [9]: 7.6 ± 1.9 µM; Kd [10]: 13.5 ± 2 µM; Kd [11]: 6.2 ± 1.5 µM; Kd ([1]; wild type, sodium phosphate 20 mM plus 100 mM NaCl pH 7.2 (ionic strength 150 mM), 25 °C, dansylated peptide 5 μM, read-out: KD 100mM NaCl, Nter-NPM1): 20.6 ± 2.6 µM; Kd ([5]; sodium phosphate 20 mM plus 100 mM NaCl pH 7.2 (ionic strength 150 mM), 25 °C, read-out: KD 100mM NaCl, D36A-E39A-E93A): 66.8 ± 12.5 µM; Kd [12]: 12.5 ± 1.4 µM; Kd [13]: 10.8 ± 2.6 µM
CC(C)C[C@H](NC(=O)[C@H](Cc1ccccc1)NC(=O)CNC(=O)[C@H](CCCNC(=N)N)NC(=O)[C@@H]1CCCN1C(=O)[C@H](C)NC(=O)[C@H](CCCCN)NC(=O)[C@H](CCCNC(=N)N)NC(=O)[C@H](CCCCN)NS(=O)(=O)c1cccc2c(N(C)C)cccc12)C(=O)N[C@@H](CCCCN)C(=O)N[C@@H](CCCNC(=N)N)C(=O)N[C@H](C(=O)N[C@@H](Cc1ccccc1)C(=O)N[C@@H](CCCCN)C(=O)N[C@@H](CCCNC(=N)N)C(=O)N[C@@H](CCCCN)C(=O)N[C@@H](CCCCN)C(=O)O)C(C)C [CENP-W*] (Dansyl-KRKAPRGFLKRVFKRKK-OH) | – | 82.8 ± 5.6 µM | 71.4 ± 9.1 µM | 734 ± 158 µM | 6.2 ± 0.9 µM | 18.4 ± 2.6 µM | –

From publication PMC5623904, “Structural investigation of nucleophosmin interaction with the tumor suppressor Fbw7γ” (Oncogenesis, 2017)
